Measurements published in paper PMC3758386 (Psychopharmacology, 2013).
Values joined by “and” are separate entries in the source; they are usually repeats but may differ in a detail not shown here. Equal values may be shown once.

Key:
[1] = biological target: K+ Channel hERG (Homo sapiens, UniProt Q12809); assay: receptor screen, K+ Channel hERG; type: binding; details: from Ki values of Table 2
[2] = test system: extracellular DA levels in the NAC shell; assay: In vivo microdialysis, extracellular DA in NAC shell; details: rat; for rate of increase in DA concentrations: ±SEM; for DA concentrations in NAC shell at times of conditioning sessions compared with 3.0 mg/kg cocaine (165% of basal): pretreatment 0, 45, 90 min
[3] = test system: rats; assay: Place conditioning; type: in vivo; details: rat
[4] = test system: Y335A mutant DAT; details: transfected cells, cited from earlier work
[5] = test system: DAT; assay: radioligand binding, DAT; details: from Ki values of Table 2
[6] = biological target: T1, Adenosine A1 (Homo sapiens, UniProt P30542); assay: receptor screen, Adenosine A1; type: binding; details: [3H]DPCPX, inactive = displacement at 10,000 nM less than 75%
T1 sequence (P30542 1-326): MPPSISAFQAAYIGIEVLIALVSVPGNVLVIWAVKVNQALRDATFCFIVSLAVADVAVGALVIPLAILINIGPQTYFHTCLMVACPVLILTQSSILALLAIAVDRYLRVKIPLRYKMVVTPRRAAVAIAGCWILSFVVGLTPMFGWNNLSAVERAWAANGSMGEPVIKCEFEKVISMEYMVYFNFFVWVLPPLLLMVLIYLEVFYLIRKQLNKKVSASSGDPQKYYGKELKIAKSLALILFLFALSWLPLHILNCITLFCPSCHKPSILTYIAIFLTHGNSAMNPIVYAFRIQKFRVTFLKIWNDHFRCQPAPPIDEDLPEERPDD

[7] = biological target: Dopamine D2L (Homo sapiens, UniProt P14416); assay: receptor screen, Dopamine D2L; type: binding; details: inactive = displacement at 10,000 nM less than 75%
[8] = biological target: Estrogen ERα (Homo sapiens, UniProt P03372); assay: receptor screen, Estrogen ERα; type: binding; details: inactive = displacement at 10,000 nM less than 75%
[9] = biological target: T2, Glucocorticoid (Homo sapiens, UniProt P04150); assay: receptor screen, Glucocorticoid; type: binding; details: inactive = displacement at 10,000 nM less than 75%
T2 sequence (P04150 1-777): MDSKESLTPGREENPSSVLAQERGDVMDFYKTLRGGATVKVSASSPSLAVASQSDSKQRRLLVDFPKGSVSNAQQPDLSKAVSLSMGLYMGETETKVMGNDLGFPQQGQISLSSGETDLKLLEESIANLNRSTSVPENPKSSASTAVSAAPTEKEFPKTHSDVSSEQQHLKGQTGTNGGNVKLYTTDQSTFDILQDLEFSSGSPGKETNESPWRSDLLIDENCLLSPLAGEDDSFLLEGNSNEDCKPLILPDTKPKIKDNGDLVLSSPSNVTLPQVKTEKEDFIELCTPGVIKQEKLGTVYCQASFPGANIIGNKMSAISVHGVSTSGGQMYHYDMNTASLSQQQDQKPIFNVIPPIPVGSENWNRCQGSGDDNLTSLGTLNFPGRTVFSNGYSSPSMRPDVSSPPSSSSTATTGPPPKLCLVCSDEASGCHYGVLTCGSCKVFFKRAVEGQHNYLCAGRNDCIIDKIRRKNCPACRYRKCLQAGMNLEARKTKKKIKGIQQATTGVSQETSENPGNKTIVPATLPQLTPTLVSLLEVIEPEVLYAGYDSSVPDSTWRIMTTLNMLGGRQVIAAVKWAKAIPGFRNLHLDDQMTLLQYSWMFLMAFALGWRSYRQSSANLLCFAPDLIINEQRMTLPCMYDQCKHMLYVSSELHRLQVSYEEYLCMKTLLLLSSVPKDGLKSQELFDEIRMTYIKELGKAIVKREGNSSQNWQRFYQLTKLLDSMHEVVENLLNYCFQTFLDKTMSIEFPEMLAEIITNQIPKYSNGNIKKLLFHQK

[10] = biological target: T3, Muscarinic M2 (Homo sapiens, UniProt P08172); assay: receptor screen, Muscarinic M2; type: binding; details: read-out: Ki Muscarinic M2, [3H]N-methylscopolamine
T3 sequence (P08172 1-466): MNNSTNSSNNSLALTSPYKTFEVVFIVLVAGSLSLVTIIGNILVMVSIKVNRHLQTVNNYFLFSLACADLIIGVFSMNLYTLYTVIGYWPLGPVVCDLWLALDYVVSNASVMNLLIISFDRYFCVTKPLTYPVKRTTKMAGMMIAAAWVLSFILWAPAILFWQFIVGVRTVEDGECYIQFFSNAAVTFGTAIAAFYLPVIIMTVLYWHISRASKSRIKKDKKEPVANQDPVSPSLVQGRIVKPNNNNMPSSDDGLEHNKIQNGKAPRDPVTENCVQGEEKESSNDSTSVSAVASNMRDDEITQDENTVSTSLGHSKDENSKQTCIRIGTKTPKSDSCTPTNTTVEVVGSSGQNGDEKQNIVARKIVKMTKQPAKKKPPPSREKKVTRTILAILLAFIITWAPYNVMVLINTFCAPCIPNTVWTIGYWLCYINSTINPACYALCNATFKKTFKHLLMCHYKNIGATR

[11] = biological target: Muscarinic M3 (Homo sapiens, UniProt P20309); assay: receptor screen, Muscarinic M3; type: binding; details: read-out: Ki Muscarinic M3, [3H]N-methylscopolamine
[12] = biological target: T4, Progesterone (Bos taurus, UniProt F1N712); assay: receptor screen, Progesterone; type: binding, Bovine; details: [3H]R-5020, inactive = displacement at 10,000 nM less than 75%
T4 sequence (F1N712 1-914): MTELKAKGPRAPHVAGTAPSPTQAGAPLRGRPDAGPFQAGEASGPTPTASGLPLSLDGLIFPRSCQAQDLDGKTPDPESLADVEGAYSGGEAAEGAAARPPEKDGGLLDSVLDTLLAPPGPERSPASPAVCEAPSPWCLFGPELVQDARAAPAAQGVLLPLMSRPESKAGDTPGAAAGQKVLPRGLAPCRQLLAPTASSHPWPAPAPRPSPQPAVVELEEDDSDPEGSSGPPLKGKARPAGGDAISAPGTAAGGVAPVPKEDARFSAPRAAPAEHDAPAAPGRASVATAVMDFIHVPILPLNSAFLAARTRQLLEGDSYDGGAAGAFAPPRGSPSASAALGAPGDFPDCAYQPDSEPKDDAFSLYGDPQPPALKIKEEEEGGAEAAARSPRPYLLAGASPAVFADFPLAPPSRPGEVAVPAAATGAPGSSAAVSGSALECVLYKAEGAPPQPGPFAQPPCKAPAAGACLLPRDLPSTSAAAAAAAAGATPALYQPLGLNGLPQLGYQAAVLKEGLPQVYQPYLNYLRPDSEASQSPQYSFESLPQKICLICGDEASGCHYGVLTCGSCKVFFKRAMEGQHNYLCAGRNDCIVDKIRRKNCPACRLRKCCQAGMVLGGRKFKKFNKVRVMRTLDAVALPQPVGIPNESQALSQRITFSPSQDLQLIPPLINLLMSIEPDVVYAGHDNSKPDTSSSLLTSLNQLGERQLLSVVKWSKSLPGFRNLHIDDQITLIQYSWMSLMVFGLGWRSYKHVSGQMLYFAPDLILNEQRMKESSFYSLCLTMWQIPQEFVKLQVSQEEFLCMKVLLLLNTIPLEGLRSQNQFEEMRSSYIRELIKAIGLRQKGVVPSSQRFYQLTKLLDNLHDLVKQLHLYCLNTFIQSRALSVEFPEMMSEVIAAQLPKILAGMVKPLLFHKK

[13] = biological target: T5, Testosterone (Rattus norvegicus, UniProt P15207); assay: receptor screen, Testosterone; type: binding; details: inactive = displacement at 10,000 nM less than 75%
T5 sequence (P15207 651-882 limits assumed): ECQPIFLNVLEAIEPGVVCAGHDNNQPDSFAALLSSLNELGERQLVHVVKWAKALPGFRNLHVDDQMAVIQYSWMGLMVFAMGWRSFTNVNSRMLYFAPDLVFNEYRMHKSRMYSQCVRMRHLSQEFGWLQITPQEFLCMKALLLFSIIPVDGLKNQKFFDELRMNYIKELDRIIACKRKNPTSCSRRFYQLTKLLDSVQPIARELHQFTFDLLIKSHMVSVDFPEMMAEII

[14] = 10 mg/kg i.p., initial phase, first 30 min (cocaine: up to the maximum)
[15] = i.p. (1 to 10 mg/kg), injected immediately before conditioning sessions

Sequence of K+ Channel hERG (Q12809 whole entry): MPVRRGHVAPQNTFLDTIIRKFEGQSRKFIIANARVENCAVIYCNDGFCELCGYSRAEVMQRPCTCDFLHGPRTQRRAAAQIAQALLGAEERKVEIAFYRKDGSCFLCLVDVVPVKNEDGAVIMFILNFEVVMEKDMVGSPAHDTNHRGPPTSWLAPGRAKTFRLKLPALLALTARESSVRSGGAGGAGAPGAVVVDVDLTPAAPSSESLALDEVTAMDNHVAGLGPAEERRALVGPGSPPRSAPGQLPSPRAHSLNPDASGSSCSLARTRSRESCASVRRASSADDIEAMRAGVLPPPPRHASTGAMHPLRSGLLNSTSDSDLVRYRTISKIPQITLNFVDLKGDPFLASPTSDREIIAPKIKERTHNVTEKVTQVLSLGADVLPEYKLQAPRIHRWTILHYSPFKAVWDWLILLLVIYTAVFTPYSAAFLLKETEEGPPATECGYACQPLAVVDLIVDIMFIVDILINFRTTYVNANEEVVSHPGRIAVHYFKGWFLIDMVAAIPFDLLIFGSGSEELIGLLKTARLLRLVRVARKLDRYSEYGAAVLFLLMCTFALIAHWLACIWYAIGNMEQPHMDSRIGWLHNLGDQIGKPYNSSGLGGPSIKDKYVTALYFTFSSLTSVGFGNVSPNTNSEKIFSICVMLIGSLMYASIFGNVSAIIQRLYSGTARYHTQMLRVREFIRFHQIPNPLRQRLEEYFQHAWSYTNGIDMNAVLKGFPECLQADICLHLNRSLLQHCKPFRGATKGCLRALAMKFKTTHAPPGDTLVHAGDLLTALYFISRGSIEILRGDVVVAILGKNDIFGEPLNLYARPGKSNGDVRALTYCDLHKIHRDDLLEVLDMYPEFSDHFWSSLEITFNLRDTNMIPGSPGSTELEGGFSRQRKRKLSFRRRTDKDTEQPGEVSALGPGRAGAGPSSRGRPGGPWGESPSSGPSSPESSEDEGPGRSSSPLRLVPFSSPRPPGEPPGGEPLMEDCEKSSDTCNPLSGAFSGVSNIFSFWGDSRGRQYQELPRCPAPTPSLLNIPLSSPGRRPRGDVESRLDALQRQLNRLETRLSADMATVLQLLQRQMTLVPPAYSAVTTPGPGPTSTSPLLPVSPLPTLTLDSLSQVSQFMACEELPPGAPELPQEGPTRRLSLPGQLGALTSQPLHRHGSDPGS
Sequence of Muscarinic M3 (P20309 whole entry): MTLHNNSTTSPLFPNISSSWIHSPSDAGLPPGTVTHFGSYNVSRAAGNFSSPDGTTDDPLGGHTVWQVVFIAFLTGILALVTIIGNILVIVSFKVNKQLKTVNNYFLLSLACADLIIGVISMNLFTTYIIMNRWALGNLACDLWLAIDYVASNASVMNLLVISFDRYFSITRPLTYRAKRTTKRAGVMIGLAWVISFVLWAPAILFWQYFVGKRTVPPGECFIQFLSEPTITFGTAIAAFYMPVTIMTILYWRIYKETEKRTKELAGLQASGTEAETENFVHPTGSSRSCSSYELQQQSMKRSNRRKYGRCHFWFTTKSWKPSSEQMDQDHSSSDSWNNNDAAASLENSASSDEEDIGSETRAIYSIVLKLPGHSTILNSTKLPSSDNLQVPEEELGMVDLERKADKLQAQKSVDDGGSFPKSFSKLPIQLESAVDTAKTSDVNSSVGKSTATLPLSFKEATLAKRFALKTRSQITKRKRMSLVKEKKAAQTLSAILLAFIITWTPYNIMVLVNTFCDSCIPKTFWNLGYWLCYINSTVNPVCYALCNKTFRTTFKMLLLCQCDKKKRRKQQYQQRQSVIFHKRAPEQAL
Sequence of Estrogen ERα (P03372 whole entry): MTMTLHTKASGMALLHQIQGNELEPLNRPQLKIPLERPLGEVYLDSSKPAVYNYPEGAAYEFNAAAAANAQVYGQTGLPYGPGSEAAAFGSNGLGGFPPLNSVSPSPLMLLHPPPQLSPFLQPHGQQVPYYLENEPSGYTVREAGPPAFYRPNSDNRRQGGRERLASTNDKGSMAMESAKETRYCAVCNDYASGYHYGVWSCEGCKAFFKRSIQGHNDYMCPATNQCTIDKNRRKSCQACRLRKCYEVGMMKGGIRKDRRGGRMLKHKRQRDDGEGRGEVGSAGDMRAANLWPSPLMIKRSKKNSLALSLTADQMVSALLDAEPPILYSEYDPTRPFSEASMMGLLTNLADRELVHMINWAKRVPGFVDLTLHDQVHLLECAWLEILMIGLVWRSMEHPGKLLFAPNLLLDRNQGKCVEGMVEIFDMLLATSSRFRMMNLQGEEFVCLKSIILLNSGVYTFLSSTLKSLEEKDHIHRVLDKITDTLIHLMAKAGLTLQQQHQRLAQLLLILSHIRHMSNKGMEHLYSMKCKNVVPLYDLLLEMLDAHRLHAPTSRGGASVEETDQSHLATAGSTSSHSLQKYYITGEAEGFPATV
Sequence of Dopamine D2L (P14416 whole entry): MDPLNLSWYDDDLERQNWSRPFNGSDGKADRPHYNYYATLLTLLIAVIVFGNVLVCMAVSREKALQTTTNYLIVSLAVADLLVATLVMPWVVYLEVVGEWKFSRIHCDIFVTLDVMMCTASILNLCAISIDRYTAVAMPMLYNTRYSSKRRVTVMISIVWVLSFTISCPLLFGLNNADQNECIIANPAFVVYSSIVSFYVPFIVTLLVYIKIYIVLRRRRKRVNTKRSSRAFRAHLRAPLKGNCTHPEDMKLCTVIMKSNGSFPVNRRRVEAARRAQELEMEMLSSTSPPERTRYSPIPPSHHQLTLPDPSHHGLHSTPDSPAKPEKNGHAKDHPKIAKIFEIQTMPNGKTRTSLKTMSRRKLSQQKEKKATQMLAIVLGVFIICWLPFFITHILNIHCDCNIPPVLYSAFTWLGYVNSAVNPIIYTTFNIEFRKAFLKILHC

Structure (SMILES)	selectivity K+ hERG channel over the DAT [1]	effect on dialysate DA levels from the NAC shell ([2]; 1.0 mg/kg i.p.)	effect on dialysate DA levels from the NAC shell ([2]; 3.0 mg/kg i.p.)	DA concentrations in NAC shell at times of conditioning sessions compared with 3.0 mg/kg cocaine (165% of basal) ([2]; 3.0 mg/kg i.p.)	duration of increase in DA levels ([2]; 10 mg/kg i.p.)	time after injection at which DA exceeded 165% of basal values ([2]; 10 mg/kg i.p.)	time after injection until which DA increase continued (peak) ([2]; 10 mg/kg i.p.)	rate of increase in DA concentrations [2, 14]	DA concentrations in NAC shell at times of conditioning sessions compared with 3.0 mg/kg cocaine (165% of basal) ([2]; 10.0 mg/kg i.p.)	place conditioning (time allocated to compound-paired compartment) [3, 15]	effect on dialysate DA levels from the NAC shell ([2]; 10 mg/kg i.p.)	also measured
CCOC(=O)[C@@H]1C(OC(c2ccc(Cl)cc2)c2ccc(Cl)cc2)C[C@@H]2CC[C@H]1N2C (mixture of isomers) [MFZ 4-86, (±)-2α-carboethoxy-3R-[bis(4-chlorophenyl)methoxy]tropane]	~ 20 fold	increases in DA that did not achieve statistical significance	also increased DA concentrations, though less than at the higher dose	levels that approximated those of cocaine in all but the first 30 min	remained elevated for the entire five-hr session	20 min	about 120 min	6.74 (±0.371) %/min	levels that exceeded those of the 3.0 mg/kg dose of cocaine at all pretreatment times	without significant place-conditioning effects		time after injection at which DA exceeded 165% of basal values ([2]; 3.0 mg/kg i.p.): 50 min; rate of increase in DA concentrations ([2]; 3.0 mg/kg i.p., initial phase (cocaine: up to the maximum)): 3.05 (±0.270) %/min; potency in Y335A mutant DAT relative to wild-type DAT (fold lower) ([4]; ref Loland et al. 2008): ~13 fold
COC(=O)[C@@H]1C(OC(c2ccc(Cl)cc2)c2ccc(Cl)cc2)C[C@@H]2CC[C@H]1N2C (mixture of isomers) [MFZ 4-87, (±)-2α-carbomethoxy-3R-[bis(4-chlorophenyl)methoxy]tropane]	~ 20 fold			levels that approximated those of cocaine in all but the first 30 min	≥ 4 h		about 160 min	5.59 (±0.712) %/min	levels that exceeded those of the 3.0 mg/kg dose of cocaine at all pretreatment times	did not produce a change in allocation of time to the compound-paired compartment		selectivity for the DAT compared to any other site assayed [5]: ~ 30 fold; increase in dialysate DA concentrations ([2]; 1.0 mg/kg i.p.): ≤ 165 % of basal levels; increase in dialysate DA concentrations ([2]; 3.0 mg/kg i.p., slightly exceeded): exceeded 165 % of basal levels; maximum / maintained DA concentration ([2]; 10 mg/kg i.p.): about 350 % of basal levels
CN1C2CCC1CC(OC(c1ccc(Cl)cc1)c1ccc(Cl)cc1)C2 (stereo not drawn) [4,4-diCl-BZT, 4′-chloro-4″-chloro-3α-(diphenylmethoxy)tropane]		did not significantly affect DA levels	did not significantly affect DA levels			≤ 20 min	about 140 min			without significant place-conditioning effects	significant increase in DA levels	Ki Adenosine A1 [6]: inactive; Ki Dopamine D2L [7]: inactive; Ki Estrogen ERα [8]: inactive; Ki Glucocorticoid [9]: inactive; Ki [10]: 640 nM; Ki [11]: 10 nM; Ki Progesterone [12]: inactive; Ki Testosterone [13]: inactive
COC(=O)[C@H]1[C@@H](OC(=O)c2ccccc2)C[C@@H]2CC[C@H]1N2C [cocaine, (−)-cocaine, reference compound]			significantly increased extracellular DA concentrations					11.4 (±0.860) %/min			significantly increased extracellular DA concentrations	rate of increase in DA concentrations ([2]; 3.0 mg/kg i.p., initial phase (cocaine: up to the maximum), 3 mg/kg): 4.84 (±0.359) %/min and 4.84 %/min; place conditioning (time allocated to compound-paired compartment) ([3]; i.p., each dose tested, injected immediately before sessions): significant place conditioning; potency in Y335A mutant DAT relative to wild-type DAT ([4]; ref Loland et al. 2002): reduced by about two orders of magnitude
